For test [1], the system named is NB-4. Nature of the test: Induction of apoptosis in human NB4 cells assessed as necrotic cells after 24 hrs in presence of Z-VAD-fmk by Annexin V-FITC/propidium iodide staining based flow cytometry (reference value: 0.1%). The class given is functional.
In test [2] the test system is NB-4. Description: Cytotoxicity against human NB4 cells assessed as reduction in cell viability at 1 to 1.2 uM after 24 hrs in presence of DMSA by trypan blue assay. The class given is functional, cell-based.

In ChEMBL document CHEMBL4330144, “A mitochondria-targeted organic arsenical accelerates mitochondrial metabolic disorder and function injury” (Bioorg Med Chem, 2019) one finds Activity data, which are given here for one compound.

Active and inactive are the calls of the source. The rule behind the calls is not given here.

Take `O=C(CC[P+](c1ccccc1)(c1ccccc1)c1ccccc1)Nc1ccc([As]2SCCCS2)cc1.[Cl-]`: in test [1], the Activity was found to be 0.2%. In addition, the outcome in test [2] was inactive.
